IC50 data for 19 compounds are collected here from patent publication US10660877B2 (BRISTOL-MYERS SQUIBB COMPANY, priority 2016, dated 2020).

Like-named read-outs stand apart in the source and are kept apart here.

As a reminder, the IC50 is the midpoint of a concentration-inhibition curve.

For one test, the target named is human TLR7 (Homo sapiens (Human), UniProt Q9NYK1). Put plainly: TLR7 inhibition reporter assay (HEK-Blue cells, SEAP reporter, gardiquimod stimulation). It counts as cell-based. In general terms: A reporter such as luciferase makes a cellular process visible.
Another test deals with human TLR8 (Homo sapiens (Human), UniProt Q9NR97). Put plainly: TLR8 inhibition reporter assay (HEK-Blue cells, SEAP reporter, R848 stimulation).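 Also: compounds tested from 0.05 nM to 50 µM, 22 h at 37 °C, SEAP measured with HEK-Blue Detection, inhibition relative to agonist plus DMSO versus a known inhibitor.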
For a further test, the target named is human TLR9 (Homo sapiens (Human), UniProt Q9NR96). Briefly: TLR9 inhibition reporter assay (HEK-Blue cells, SEAP reporter, ODN2006 stimulation).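 Also: compounds tested over 0.05 nM to 50 µM, 22 h incubation, inhibition taken as SEAP signal drop from agonist plus DMSO wells toward a known inhibitor control.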
[1] abbreviates: HEK-Blue cells overexpressing human TLR7, gardiquimod 7.5 μM.
Setting [2] is: read-out: TLR8 IC50, HEK-Blue cells overexpressing human TLR8, R848 15.9 μM.
[3] abbreviates: read-out: TLR9 IC50, HEK-Blue cells overexpressing human TLR9, ODN2006 5 nM.
[4] abbreviates: HEK-Blue cells, gardiquimod 7.5 μM.
Setting [5] is: read-out: TLR8 IC50, HEK-Blue cells, R848 15.9 μM.
[6] abbreviates: read-out: TLR9 IC50, HEK-Blue cells, ODN2006 5 nM.
[7] abbreviates: TLR8 IC50, HEK-Blue cells overexpressing human TLR8, R848 15.9 μM.
[8] abbreviates: TLR9 IC50, HEK-Blue cells overexpressing human TLR9, ODN2006 5 nM.

Sequence of human TLR7 (Q9NYK1 27-1049): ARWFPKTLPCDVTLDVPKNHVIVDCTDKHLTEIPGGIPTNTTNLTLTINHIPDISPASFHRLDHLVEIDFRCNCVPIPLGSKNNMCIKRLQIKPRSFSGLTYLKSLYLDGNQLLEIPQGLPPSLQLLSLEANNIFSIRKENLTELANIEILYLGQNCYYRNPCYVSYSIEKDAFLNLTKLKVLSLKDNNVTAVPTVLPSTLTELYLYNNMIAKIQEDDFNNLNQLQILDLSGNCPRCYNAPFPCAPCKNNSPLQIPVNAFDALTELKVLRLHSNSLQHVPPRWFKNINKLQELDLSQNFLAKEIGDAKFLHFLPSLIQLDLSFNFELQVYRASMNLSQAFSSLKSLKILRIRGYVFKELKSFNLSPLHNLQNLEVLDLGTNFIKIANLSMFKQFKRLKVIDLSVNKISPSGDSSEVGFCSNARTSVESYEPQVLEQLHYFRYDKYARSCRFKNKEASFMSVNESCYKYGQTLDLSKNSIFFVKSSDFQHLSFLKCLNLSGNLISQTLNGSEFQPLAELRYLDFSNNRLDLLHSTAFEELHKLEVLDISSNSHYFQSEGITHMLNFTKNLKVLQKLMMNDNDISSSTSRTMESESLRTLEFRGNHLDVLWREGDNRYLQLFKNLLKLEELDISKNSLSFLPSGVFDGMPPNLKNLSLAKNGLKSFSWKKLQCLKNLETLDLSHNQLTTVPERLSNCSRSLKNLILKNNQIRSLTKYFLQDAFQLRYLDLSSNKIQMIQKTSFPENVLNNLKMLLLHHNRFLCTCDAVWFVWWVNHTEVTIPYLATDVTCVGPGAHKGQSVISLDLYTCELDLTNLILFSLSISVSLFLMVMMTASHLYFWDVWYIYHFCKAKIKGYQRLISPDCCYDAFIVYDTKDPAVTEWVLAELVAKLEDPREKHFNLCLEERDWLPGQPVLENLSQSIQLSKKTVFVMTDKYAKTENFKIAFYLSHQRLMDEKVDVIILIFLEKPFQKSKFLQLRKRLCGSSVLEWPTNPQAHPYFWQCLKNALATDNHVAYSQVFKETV
Sequence of human TLR9 (Q9NR96 26-1032): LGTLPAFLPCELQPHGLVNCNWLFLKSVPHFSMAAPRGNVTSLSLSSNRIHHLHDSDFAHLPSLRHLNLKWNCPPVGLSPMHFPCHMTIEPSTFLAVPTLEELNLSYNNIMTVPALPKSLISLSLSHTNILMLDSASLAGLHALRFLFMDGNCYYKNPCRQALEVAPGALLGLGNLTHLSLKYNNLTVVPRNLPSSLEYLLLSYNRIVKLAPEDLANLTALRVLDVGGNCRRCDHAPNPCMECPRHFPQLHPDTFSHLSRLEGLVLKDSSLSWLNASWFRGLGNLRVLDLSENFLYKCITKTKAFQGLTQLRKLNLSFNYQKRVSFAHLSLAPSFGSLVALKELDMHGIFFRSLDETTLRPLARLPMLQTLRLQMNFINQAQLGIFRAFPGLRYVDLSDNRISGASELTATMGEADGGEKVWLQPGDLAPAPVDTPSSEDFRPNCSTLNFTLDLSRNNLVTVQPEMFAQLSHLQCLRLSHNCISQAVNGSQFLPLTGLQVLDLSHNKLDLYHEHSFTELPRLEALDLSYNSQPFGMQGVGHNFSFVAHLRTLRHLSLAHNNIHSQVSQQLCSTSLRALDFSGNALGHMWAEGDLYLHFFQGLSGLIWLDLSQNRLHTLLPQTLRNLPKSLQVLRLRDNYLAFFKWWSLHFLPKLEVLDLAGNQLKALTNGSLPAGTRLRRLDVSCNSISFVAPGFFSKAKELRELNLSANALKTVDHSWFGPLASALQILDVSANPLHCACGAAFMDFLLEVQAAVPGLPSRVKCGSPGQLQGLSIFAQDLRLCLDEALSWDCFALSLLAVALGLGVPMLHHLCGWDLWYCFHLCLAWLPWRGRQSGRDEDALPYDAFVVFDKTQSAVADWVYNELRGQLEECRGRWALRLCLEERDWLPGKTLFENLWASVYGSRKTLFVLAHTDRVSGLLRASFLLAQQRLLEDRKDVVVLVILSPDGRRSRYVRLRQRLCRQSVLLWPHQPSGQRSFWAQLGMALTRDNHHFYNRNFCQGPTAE
Sequence of human TLR8 (Q9NR97 27-1041): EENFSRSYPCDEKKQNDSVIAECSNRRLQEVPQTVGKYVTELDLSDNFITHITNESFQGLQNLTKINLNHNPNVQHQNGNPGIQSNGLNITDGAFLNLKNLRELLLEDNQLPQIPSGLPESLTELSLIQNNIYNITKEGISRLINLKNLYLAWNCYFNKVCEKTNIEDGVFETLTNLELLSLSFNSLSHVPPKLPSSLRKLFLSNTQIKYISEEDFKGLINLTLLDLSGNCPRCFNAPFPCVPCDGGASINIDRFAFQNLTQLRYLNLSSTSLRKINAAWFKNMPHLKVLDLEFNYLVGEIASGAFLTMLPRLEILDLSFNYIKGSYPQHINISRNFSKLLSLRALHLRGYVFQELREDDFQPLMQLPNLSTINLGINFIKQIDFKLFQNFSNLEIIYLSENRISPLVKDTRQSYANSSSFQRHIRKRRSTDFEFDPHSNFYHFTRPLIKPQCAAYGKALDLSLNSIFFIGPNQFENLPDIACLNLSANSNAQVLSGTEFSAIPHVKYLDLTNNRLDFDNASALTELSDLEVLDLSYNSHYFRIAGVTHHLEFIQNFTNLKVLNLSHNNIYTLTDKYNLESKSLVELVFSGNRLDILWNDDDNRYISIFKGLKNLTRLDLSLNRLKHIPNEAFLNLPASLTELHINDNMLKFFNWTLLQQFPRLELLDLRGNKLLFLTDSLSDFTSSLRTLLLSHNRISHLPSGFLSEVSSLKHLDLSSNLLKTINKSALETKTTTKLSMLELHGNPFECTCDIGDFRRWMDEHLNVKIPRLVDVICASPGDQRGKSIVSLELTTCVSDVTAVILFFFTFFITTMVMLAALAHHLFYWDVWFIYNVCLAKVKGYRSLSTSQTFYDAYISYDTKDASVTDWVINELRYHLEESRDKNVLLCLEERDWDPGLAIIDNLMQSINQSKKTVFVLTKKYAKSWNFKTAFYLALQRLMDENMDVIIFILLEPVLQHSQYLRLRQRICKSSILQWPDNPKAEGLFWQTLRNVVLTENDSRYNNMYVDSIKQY

With `Cc1cc(-c2[nH]c3ccc(C4CCN(C(=O)CCN(C)CCO)CC4)cc3c2C(C)C)cc(C)n1` [Example 175, 1-(4-(2-(2,6-dimethylpyridin-4-yl)-3-isopropyl-1H-indol-5-yl)piperidin-1-yl)-3-((2-hydroxyethyl)(methyl)amino)propan-1-one], the IC50 against human TLR7 (setting [1]) is 1.5 nM; on human TLR8 (setting [2]), 7.1 nM; at human TLR9 (setting [3]), 213 nM.

As for `CCc1c(-c2ccnc(-n3ccnc3)c2)[nH]c2ccc(C3CCNCC3)cc12` [Example 67, 2-(2-(1H-imidazol-1-yl)pyridin-4-yl)-3-ethyl-5-(piperidin-4-yl)-1H-indole], the IC50 at human TLR7 (setting [1]) is 1010 nM; on human TLR8 (setting [2]), 9 nM; on human TLR9 (setting [3]), 396 nM.

As to `Cc1nccc(-c2[nH]c3ccc(C4CCN(Cc5ncn(C)n5)CC4)cc3c2C(C)C)c1F` [Example 732, 2-(3-fluoro-2-methylpyridin-4-yl)-3-isopropyl-5-(1-((1-methyl-1H-1,2,4-triazol-3-yl)methyl)piperidin-4-yl)-1H-indole], the values for the IC50 against human TLR7 (setting [1]), at human TLR8 (setting [2]) and at human TLR9 (setting [3]) were 22.5 nM, 10.3 nM and 10100 nM, respectively.

`Cc1cc(-c2[nH]c3ccc(C4CCN(C(=O)[C@H]5C[C@H]6CC[C@@H](C5)N6)CC4)cc3c2C(C)C)ccn1` [Example 580, ((1R,3r,5S)-8-azabicyclo[3.2.1]octan-3-yl)(4-(3-isopropyl-2-(2-methylpyridin-4-yl)-1H-indol-5-yl)piperidin-1-yl)methanone]: the IC50 was found to be 67.2 nM at human TLR7 (setting [1]), 53.7 nM on human TLR8 (setting [2]) and 508 nM at human TLR9 (setting [3]).

`CCc1c(-c2ccnc(C)c2)[nH]c2ccc(C3CCN(C[C@@H]4CCCN4C(C)C)CC3)cc12` [Example 741, (S)-3-ethyl-5-(1-((1-isopropylpyrrolidin-2-yl)methyl)piperidin-4-yl)-2-(2-methylpyridin-4-yl)-1H-indole]: the values for the IC50 against human TLR7 (setting [1]), at human TLR8 (setting [2]) and at human TLR9 (setting [3]) were 172 nM, 32.7 nM and 213 nM, respectively.

As to `Cc1cc(-c2[nH]c3cc(C(F)(F)F)c(C4CCN(CC5CCNC5)CC4)cc3c2C(C)C)ccn1` (stereo not drawn) [Example 873, 3-isopropyl-2-(2-methylpyridin-4-yl)-5-(1-(pyrrolidin-3-ylmethyl)piperidin-4-yl)-6-(trifluoromethyl)-1H-indole], the IC50 against human TLR7 (setting [4]) amounted to 13.5 nM; on human TLR8 (setting [5]), 467 nM; on human TLR9 (setting [6]) it was 96 nM.

In the case of `Cc1cc(-c2[nH]c3ccc(C4CCN(CC(O)C(C)(C)C)CC4)cc3c2C(C)C)cc(C)n1` (stereo not drawn) [Example 850, 1-(4-(2-(2,6-dimethylpyridin-4-yl)-3-isopropyl-1H-indol-5-yl)piperidin-1-yl)-3,3-dimethylbutan-2-ol], the IC50 against human TLR7 (setting [4]) amounted to 3.8 nM; at human TLR8 (setting [5]), 4.7 nM; at human TLR9 (setting [6]), 312 nM.

As to `Cc1cc(-c2[nH]c3ccc(C4CCN(C(=O)C5CCN(C(C)C)CC5)CC4)cc3c2C(C)C)ccn1` [Example 563, (4-(3-isopropyl-2-(2-methylpyridin-4-yl)-1H-indol-5-yl)piperidin-1-yl)(1-isopropylpiperidin-4-yl)methanone], the IC50 on human TLR7 (setting [1]) is 16.5 nM; at human TLR8 (setting [2]), 18.9 nM; on human TLR9 (setting [3]), 1150 nM.

As to `CCc1c(-c2ccnc(C)c2)[nH]c2ccc(C3CCN(C(=O)C4CCNCC4)CC3)cc12` [Example 625, (4-(3-ethyl-2-(2-methylpyridin-4-yl)-1H-indol-5-yl)piperidin-1-yl)(piperidin-4-yl)methanone], the IC50 against human TLR7 (setting [1]) was 84.5 nM; on human TLR8 (setting [2]), 83.5 nM; on human TLR9 (setting [3]), 177 nM.

Regarding `CNC(=O)CN1CCC(c2ccc3[nH]c(-c4cc(C)nc(F)c4)c(C(C)C)c3c2)CC1` [Example 498, 2-(4-(2-(2-fluoro-6-methylpyridin-4-yl)-3-isopropyl-1H-indol-5-yl)piperidin-1-yl)-N-methylacetamide], the IC50 amounted to 834 nM at human TLR7 (setting [1]), 1240 nM on human TLR8 (setting [2]) and 6940 nM on human TLR9 (setting [3]).

On to `Cc1cc(-c2[nH]c3ccc(C4CCN(Cc5c[nH]cn5)CC4)cc3c2CC(F)F)cc(C)n1` [Example 537, 5-(1-((1H-imidazol-4-yl)methyl)piperidin-4-yl)-3-(2,2-difluoroethyl)-2-(2,6-dimethylpyridin-4-yl)-1H-indole], for which the IC50 stood at 36.2 nM against human TLR7 (setting [1]), 53.3 nM on human TLR8 (setting [2]) and 32 nM at human TLR9 (setting [3]).

As to `Cc1cc(-c2[nH]c3ccc(C4CCN(Cc5nn[nH]n5)CC4)cc3c2C(C)C)cc(C)n1` [Example 462, 5-(1-((2H-tetrazol-5-yl)methyl)piperidin-4-yl)-2-(2,6-dimethylpyridin-4-yl)-3-isopropyl-1H-indole], the IC50 on human TLR7 (setting [1]) amounted to 70.4 nM; on human TLR8 (setting [2]) it was 210 nM; at human TLR9 (setting [3]) it was 5260 nM.

`Cc1nc[nH]c1CN1CCC(c2ccc3[nH]c(-c4ccnc(N)c4)c(C(C)C)c3c2)CC1` [Example 816, 4-(3-isopropyl-5-(1-((4-methyl-1H-imidazol-5-yl)methyl)piperidin-4-yl)-1H-indol-2-yl)pyridin-2-amine]: the IC50 at human TLR7 (setting [4]) came out at 215 nM; on human TLR8 (setting [5]), 47.3 nM; at human TLR9 (setting [6]), 86 nM.

For `Cc1c(-c2[nH]c3ccc(C4CCNCC4)cc3c2C(C)C)ccnc1N` [Example 11, 4-(3-isopropyl-5-(piperidin-4-yl)-1H-indol-2-yl)-3-methylpyridin-2-amine], the IC50 was 358 nM against human TLR7 (setting [1]), 90.6 nM on human TLR8 (setting [7]) and 309 nM on human TLR9 (setting [8]).

`Cc1cc(-c2[nH]c3ccc(C4CCN(C5CCOC5)CC4)cc3c2C(C)C)ccn1` (stereo not drawn) [Example 717, 3-isopropyl-2-(2-methylpyridin-4-yl)-5-(1-(tetrahydrofuran-3-yl)piperidin-4-yl)-1H-indole]: the figures for the IC50 against human TLR7 (setting [1]), on human TLR8 (setting [2]) and on human TLR9 (setting [3]) were 15.8 nM, 5.9 nM and 1590 nM, respectively.

As to `CC(C)c1c(-c2cc(C3CC3)ncc2F)[nH]c2ccc(C3CCN(C(=O)C4CC(=O)N(C)C4)CC3)cc12` (stereo not drawn) [Example 517, 4-(4-(2-(2-cyclopropyl-5-fluoropyridin-4-yl)-3-isopropyl-1H-indol-5-yl)piperidine-1-carbonyl)-1-methylpyrrolidin-2-one], the IC50 at human TLR7 (setting [1]) was 144 nM; on human TLR8 (setting [2]) it was 1150 nM; at human TLR9 (setting [3]), greater than 50000 nM.

As for `Cc1cc(-c2[nH]c3ccc(C4CCN(C(=O)c5cn(C)nc5C)CC4)cc3c2C(C)C)cc(C)n1` [Example 141, (1,3-dimethyl-1H-pyrazol-4-yl)(4-(2-(2,6-dimethylpyridin-4-yl)-3-isopropyl-1H-indol-5-yl)piperidin-1-yl)methanone], the IC50 worked out at 4.8 nM against human TLR7 (setting [1]), 60.5 nM on human TLR8 (setting [2]) and 40000 nM on human TLR9 (setting [3]).

In the case of `Cc1cc(-c2[nH]c3ccc(C4CCN(C(=O)CN(C)CC(O)c5ccccc5)CC4)cc3c2C(C)C)cc(C)n1` (stereo not drawn) [Example 399, 1-(4-(2-(2,6-dimethylpyridin-4-yl)-3-isopropyl-1H-indol-5-yl)piperidin-1-yl)-2-((2-hydroxy-2-phenylethyl)(methyl)amino)ethan-1-one], the IC50 on human TLR7 (setting [1]) worked out at 6.1 nM; on human TLR8 (setting [2]) it was 66.9 nM; at human TLR9 (setting [3]) it was 688 nM.

Turning to `Cc1cc(-c2[nH]c3ccc(C4CCN(C(=O)CNC5(C)CCOCC5)CC4)cc3c2C(C)C)cc(C)n1` [Example 374, 1-(4-(2-(2,6-dimethylpyridin-4-yl)-3-isopropyl-1H-indol-5-yl)piperidin-1-yl)-2-((4-methyltetrahydro-2H-pyran-4-yl)amino)ethan-1-one], the half-inhibitory concentration (IC50) against human TLR7 (setting [1]) was determined as 5.6 nM; on human TLR8 (setting [7]), 21.4 nM; against human TLR9 (setting [8]), 548 nM.
